According to the supplement of paper PMC10307832:

Assays:
Experiment in all cases: relative viability (nuclei count vs DMSO), 5 days (fraction); higher = more cells survive
BEN = system: BEN
How it was run: (§1)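 After 5 days of treatment, lung cancer cells in 1536-well plates were fixed and stained in a single step (final 0.05% Triton X-100, 1% formaldehyde, 1 ug/ml Hoechst) and their nuclei counted on 4× images. Treatment had been applied by pin tool the day after seeding as one drug alone or as a fixed anchor-drug dose with five library-drug doses (not always all listed) in √10 steps. Relative viability is the nuclei count of treated wells divided by that of vehicle wells, and values are medians of duplicate plates.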

CAL-12T = system: CAL-12T
How it was run: as §1

COR-L23 = system: COR-L23
How it was run: as §1

HCC-44 = system: HCC-44
How it was run: as §1

LU99A = system: LU99A
How it was run: as §1

LXF-289 = system: LXF-289
How it was run: as §1

NCI-H1355 = system: NCI-H1355
How it was run: as §1

NCI-H1437 = system: NCI-H1437
How it was run: as §1

NCI-H1650 = system: NCI-H1650
How it was run: as §1

NCI-H1651 = system: NCI-H1651
How it was run: as §1

NCI-H1666 = system: NCI-H1666
How it was run: as §1

NCI-H1755 = system: NCI-H1755
How it was run: as §1

NCI-H1993 = system: NCI-H1993
How it was run: as §1

NCI-H2085 = system: NCI-H2085
How it was run: as §1

NCI-H2087 = system: NCI-H2087
How it was run: as §1

NCI-H2170 = system: NCI-H2170
How it was run: as §1

NCI-H460 = system: NCI-H460
How it was run: as §1

NCI-H520 = system: NCI-H520
How it was run: as §1

PC-14 = system: PC-14
How it was run: as §1

SK-MES-1 = system: SK-MES-1
How it was run: as §1

**Q.** For Cc1cn(-c2cc(NC(=O)c3ccc(C)c(Nc4nccc(-c5cccnc5)n4)c3)cc(C(F)(F)F)c2)cn1 [Nilotinib] + O=C(CCCCCCC(=O)Nc1ccccc1)NO [Vorinostat] (partner 1 µM), which relative viability (BEN; first compound 0.001 µM) is on record?
**A.** 0.532

**Q.** And the relative viability (BEN; first compound 0.003162 µM)?
**A.** 0.556

**Q.** And the relative viability (BEN; first compound 0.01 µM)?
**A.** 0.723

**Q.** And the relative viability (BEN; first compound 0.03162 µM)?
**A.** 0.642

**Q.** And the relative viability (BEN; first compound 0.1 µM)?
**A.** 0.574

**Q.** And the relative viability (CAL-12T; first compound 0.001 µM)?
**A.** 0.673

**Q.** What about the relative viability (CAL-12T; first compound 0.003162 µM) of the same compound?
**A.** 0.704

**Q.** And the relative viability (CAL-12T; first compound 0.01 µM)?
**A.** 0.994

**Q.** And the relative viability (CAL-12T; first compound 0.03162 µM)?
**A.** 0.573

**Q.** What about the relative viability (CAL-12T; first compound 0.1 µM) of the same compound?
**A.** 0.566

**Q.** And the relative viability (COR-L23; first compound 0.001 µM)?
**A.** 0.317

**Q.** What about the relative viability (COR-L23; first compound 0.003162 µM) of the same compound?
**A.** 0.347

**Q.** And the relative viability (COR-L23; first compound 0.01 µM)?
**A.** 0.406

**Q.** What about the relative viability (COR-L23; first compound 0.03162 µM) of the same compound?
**A.** 0.373

**Q.** And the relative viability (COR-L23; first compound 0.1 µM)?
**A.** 0.392

**Q.** What about the relative viability (HCC-44; first compound 0.001 µM) of the same compound?
**A.** 1.07

**Q.** And the relative viability (HCC-44; first compound 0.003162 µM)?
**A.** 1.06

**Q.** And the relative viability (HCC-44; first compound 0.01 µM)?
**A.** 1.09

**Q.** And the relative viability (HCC-44; first compound 0.1 µM)?
**A.** 1.07

**Q.** What about the relative viability (LU99A; first compound 0.001 µM) of the same compound?
**A.** 0.429

**Q.** What about the relative viability (LU99A; first compound 0.003162 µM) of the same compound?
**A.** 0.506

**Q.** What about the relative viability (LU99A; first compound 0.01 µM) of the same compound?
**A.** 0.468

**Q.** And the relative viability (LU99A; first compound 0.03162 µM)?
**A.** 0.411

**Q.** And the relative viability (LU99A; first compound 0.1 µM)?
**A.** 0.353

**Q.** And the relative viability (LXF-289; first compound 0.001 µM)?
**A.** 0.693

**Q.** And the relative viability (LXF-289; first compound 0.003162 µM)?
**A.** 0.994

**Q.** What about the relative viability (LXF-289; first compound 0.01 µM) of the same compound?
**A.** 0.882

**Q.** What about the relative viability (LXF-289; first compound 0.03162 µM) of the same compound?
**A.** 0.869

**Q.** What about the relative viability (LXF-289; first compound 0.1 µM) of the same compound?
**A.** 0.534

**Q.** And the relative viability (NCI-H1355; first compound 0.001 µM)?
**A.** 0.6

**Q.** What about the relative viability (NCI-H1355; first compound 0.003162 µM) of the same compound?
**A.** 0.695

**Q.** And the relative viability (NCI-H1355; first compound 0.01 µM)?
**A.** 0.67

**Q.** And the relative viability (NCI-H1355; first compound 0.03162 µM)?
**A.** 0.59

**Q.** And the relative viability (NCI-H1355; first compound 0.1 µM)?
**A.** 0.335

**Q.** And the relative viability (NCI-H1437; first compound 0.001 µM)?
**A.** 0.664

**Q.** What about the relative viability (NCI-H1437; first compound 0.003162 µM) of the same compound?
**A.** 0.97

**Q.** And the relative viability (NCI-H1437; first compound 0.01 µM)?
**A.** 0.878

**Q.** And the relative viability (NCI-H1437; first compound 0.03162 µM)?
**A.** 0.506

**Q.** And the relative viability (NCI-H1437; first compound 0.1 µM)?
**A.** 0.583

**Q.** And the relative viability (NCI-H1650; first compound 0.001 µM)?
**A.** 0.49

**Q.** What about the relative viability (NCI-H1650; first compound 0.003162 µM) of the same compound?
**A.** 0.733

**Q.** And the relative viability (NCI-H1650; first compound 0.01 µM)?
**A.** 0.746

**Q.** And the relative viability (NCI-H1650; first compound 0.03162 µM)?
**A.** 0.488

**Q.** And the relative viability (NCI-H1650; first compound 0.1 µM)?
**A.** 0.528

**Q.** And the relative viability (NCI-H1651; first compound 0.001 µM)?
**A.** 0.531

**Q.** What about the relative viability (NCI-H1651; first compound 0.003162 µM) of the same compound?
**A.** 0.612

**Q.** What about the relative viability (NCI-H1651; first compound 0.01 µM) of the same compound?
**A.** 0.602

**Q.** And the relative viability (NCI-H1651; first compound 0.03162 µM)?
**A.** 0.528

**Q.** What about the relative viability (NCI-H1651; first compound 0.1 µM) of the same compound?
**A.** 0.418

**Q.** And the relative viability (NCI-H1666; first compound 0.001 µM)?
**A.** 0.942

**Q.** What about the relative viability (NCI-H1666; first compound 0.003162 µM) of the same compound?
**A.** 1.11

**Q.** And the relative viability (NCI-H1666; first compound 0.01 µM)?
**A.** 1.17

**Q.** What about the relative viability (NCI-H1666; first compound 0.03162 µM) of the same compound?
**A.** 1.11

**Q.** What about the relative viability (NCI-H1666; first compound 0.1 µM) of the same compound?
**A.** 1.17

**Q.** What about the relative viability (NCI-H1755; first compound 0.001 µM) of the same compound?
**A.** 0.605

**Q.** What about the relative viability (NCI-H1755; first compound 0.003162 µM) of the same compound?
**A.** 0.755

**Q.** And the relative viability (NCI-H1755; first compound 0.01 µM)?
**A.** 0.695

**Q.** What about the relative viability (NCI-H1755; first compound 0.03162 µM) of the same compound?
**A.** 0.59

**Q.** What about the relative viability (NCI-H1755; first compound 0.1 µM) of the same compound?
**A.** 0.595

**Q.** And the relative viability (NCI-H1993; first compound 0.001 µM)?
**A.** 0.6

**Q.** And the relative viability (NCI-H1993; first compound 0.003162 µM)?
**A.** 0.655

**Q.** What about the relative viability (NCI-H1993; first compound 0.01 µM) of the same compound?
**A.** 0.843

**Q.** What about the relative viability (NCI-H1993; first compound 0.03162 µM) of the same compound?
**A.** 0.722

**Q.** And the relative viability (NCI-H1993; first compound 0.1 µM)?
**A.** 0.497

**Q.** What about the relative viability (NCI-H2085; first compound 0.001 µM) of the same compound?
**A.** 0.833

**Q.** And the relative viability (NCI-H2085; first compound 0.003162 µM)?
**A.** 0.776

**Q.** And the relative viability (NCI-H2085; first compound 0.01 µM)?
**A.** 0.784

**Q.** And the relative viability (NCI-H2085; first compound 0.03162 µM)?
**A.** 0.753

**Q.** What about the relative viability (NCI-H2085; first compound 0.1 µM) of the same compound?
**A.** 0.598

**Q.** And the relative viability (NCI-H2087; first compound 0.001 µM)?
**A.** 0.707

**Q.** And the relative viability (NCI-H2087; first compound 0.003162 µM)?
**A.** 0.709

**Q.** What about the relative viability (NCI-H2087; first compound 0.01 µM) of the same compound?
**A.** 1.23

**Q.** And the relative viability (NCI-H2087; first compound 0.03162 µM)?
**A.** 0.567

**Q.** What about the relative viability (NCI-H2087; first compound 0.1 µM) of the same compound?
**A.** 0.543

**Q.** What about the relative viability (NCI-H2170; first compound 0.001 µM) of the same compound?
**A.** 0.818

**Q.** What about the relative viability (NCI-H2170; first compound 0.003162 µM) of the same compound?
**A.** 1.16

**Q.** And the relative viability (NCI-H2170; first compound 0.01 µM)?
**A.** 1.05

**Q.** And the relative viability (NCI-H2170; first compound 0.03162 µM)?
**A.** 0.622

**Q.** What about the relative viability (NCI-H2170; first compound 0.1 µM) of the same compound?
**A.** 0.877

**Q.** What about the relative viability (NCI-H460; first compound 0.001 µM) of the same compound?
**A.** 0.428

**Q.** And the relative viability (NCI-H460; first compound 0.003162 µM)?
**A.** 0.996

**Q.** And the relative viability (NCI-H460; first compound 0.01 µM)?
**A.** 1.34

**Q.** What about the relative viability (NCI-H460; first compound 0.03162 µM) of the same compound?
**A.** 0.33

**Q.** What about the relative viability (NCI-H460; first compound 0.1 µM) of the same compound?
**A.** 0.535

**Q.** What about the relative viability (NCI-H520; first compound 0.001 µM) of the same compound?
**A.** 0.584

**Q.** And the relative viability (NCI-H520; first compound 0.003162 µM)?
**A.** 0.79

**Q.** What about the relative viability (NCI-H520; first compound 0.01 µM) of the same compound?
**A.** 0.81

**Q.** What about the relative viability (NCI-H520; first compound 0.03162 µM) of the same compound?
**A.** 0.617

**Q.** What about the relative viability (NCI-H520; first compound 0.1 µM) of the same compound?
**A.** 0.699

**Q.** What about the relative viability (PC-14; first compound 0.001 µM) of the same compound?
**A.** 0.594

**Q.** What about the relative viability (PC-14; first compound 0.003162 µM) of the same compound?
**A.** 0.378

**Q.** What about the relative viability (PC-14; first compound 0.01 µM) of the same compound?
**A.** 0.756

**Q.** What about the relative viability (PC-14; first compound 0.03162 µM) of the same compound?
**A.** 0.604

**Q.** What about the relative viability (PC-14; first compound 0.1 µM) of the same compound?
**A.** 0.156

**Q.** What about the relative viability (SK-MES-1; first compound 0.001 µM) of the same compound?
**A.** 1.12

**Q.** And the relative viability (SK-MES-1; first compound 0.003162 µM)?
**A.** 0.623

**Q.** What about the relative viability (SK-MES-1; first compound 0.01 µM) of the same compound?
**A.** 1.33

**Q.** And the relative viability (SK-MES-1; first compound 0.03162 µM)?
**A.** 0.936

**Q.** What about the relative viability (SK-MES-1; first compound 0.1 µM) of the same compound?
**A.** 0.618
